Measured values taken from patent publication US10294212B2 (CURADEV PHARMA PRIVATE LTD., priority 2013, dated 2019).

Legend:
[1] = biological target: Human indoleamine 2,3-dioxygenase1 (hIDO1) (Homo sapiens (Human), UniProt P14902); test: In-vitro IDO1 enzyme assay (conversion of L-tryptophan to KYN); format: biochemical; settings: read-out: IC50 (IDO1) Enz
Excerpt: Human indoleamine 2,3-dioxygenasel (hIDO1) catalyzes the oxidative cleavage of the pyrrole ring of the indole nucleus of tryptophan to yield N-formylkynurenine which can be converted to kynurenine (KYN) by deformylation. hIDO1 with an N-terminal His tag, expressed and purified from E. coli cells was procured from either Enzo LifeScienccs, NY, USA). Unless otherwise stated, all materials were procured from Sigma Aldrich, Mo., USA.
The assay monitoring the conversion of L-tryptophan to KYN was carried out as follows. hIDO1 (10 nM) was incubated with tryptophan (30 μM) in the presence of ascorbic acid (20 mM), methylene blue (10 μM) and catalase (100 μg/mL) in potassium phosphate buffer (50 mM; pH 6.5) at 37C for 30 min. The reaction was terminated with 30% trichloroacetic acid (TCA) and further incubated at 65C for 15 min to fully convert N-formylkynurenine to KYN. The reaction mixture was then centrifuged to remove sediments and the KYN in the supernatant was estimated by UV-visible absorption spectroscopy at 360 nm using a Waters HPLC system fitted with a C-18 column or by LC/MS/MS. See, Sono, 1980, J. Biol. Chem., 255:1339-1345, which is herein incorporated by reference.
Percent inhibition at each concentration of test compounds was determined by estimating the decrease in KYN with reference to the reaction control with 1% DMSO vehicle. Data were analyzed using nonlinear regression to generate IC50 values using Graph Pad Prism® 5.

[2] = biological target: Human TDO (hTDO)-transfected CHO-K1 cells (Homo sapiens (Human), UniProt P48775); test: CHO-K1 cell based TDO assay; settings: hTDO cellular assay
Chain of Human TDO (hTDO)-transfected CHO-K1 cells (P48775 whole entry): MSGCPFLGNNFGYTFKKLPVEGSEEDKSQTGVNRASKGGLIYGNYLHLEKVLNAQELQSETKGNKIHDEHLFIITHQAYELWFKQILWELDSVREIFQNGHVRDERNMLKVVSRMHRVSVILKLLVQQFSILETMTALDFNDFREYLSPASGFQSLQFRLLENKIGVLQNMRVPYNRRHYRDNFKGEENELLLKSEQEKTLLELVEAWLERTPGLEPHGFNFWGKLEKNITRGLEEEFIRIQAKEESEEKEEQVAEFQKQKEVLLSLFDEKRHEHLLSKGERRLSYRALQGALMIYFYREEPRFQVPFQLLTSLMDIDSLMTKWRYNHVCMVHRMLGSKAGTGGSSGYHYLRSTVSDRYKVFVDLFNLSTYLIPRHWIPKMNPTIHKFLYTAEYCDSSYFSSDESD
Method: Human TDO (hTDO)-transfected CHO-K1 cells were used to identify test compounds that inhibit TDO activity and reduce Kynurenine production. CHO-K1 cells (ATCC) were cultured in DMEM supplemented with sodium bicarbonate (2.1 g/L), HEPES (4.1 g/L), L-glutamine (2 mM), non-essential amino acid (84 mg/L) and fetal bovine serum (10%) and maintained at 95% humidity and 5% CO2 in a 37° C. incubator. The TDO gene (TDO2) (Accession number NM_005651.1) was purchased from Origene (USA) and stably expressed in CHO-Kl cells using the expression vector pcDNA4/Myc-HisB Hygro (Life Technologies, USA). TDO-expressing clones were identified based on the kynurenine production by the cells. Expanded clones were used for assay as described below. Unless otherwise stated, all materials were procured from Sigma.
hTDO transfected CHO-K1 cells (0.05 million/well) were seeded in a 96-well plate and maintained overnight in DMEM containing 10% FBS (200 μL) at 95% humidity and 5% CO2 in a 37° C. incubator. The following day, cells were washed and incubated with test compounds (typically 31 μM to 10 nM, final volume 150 μL) in Hanks Balanced Salt Solution (HBSS) containing 80 μM L-tryptophan for 2 hours. Supernatant (150 μL) from the cells was treated with 30% TCA ([…]) to precipitate proteins. Supernatants were further incubated at 65° C. for 15 min to convert N-formylkynurenine to kynurenine. KYN in the supernatant was measured by LC/MS/MS using an API4000 mass spectrometer (Applied Biosystems) coupled to a Shimadzu Prominence LC system fitted with a C18 column.
Percent inhibition of the test compounds was determined by measuring the decrease in KYN as compared to the reaction control (DMSO vehicle). IC50 values were calculated using Graph Pad Prism® 5 as described above.

Chain of Human indoleamine 2,3-dioxygenase1 (hIDO1) (P14902 whole entry): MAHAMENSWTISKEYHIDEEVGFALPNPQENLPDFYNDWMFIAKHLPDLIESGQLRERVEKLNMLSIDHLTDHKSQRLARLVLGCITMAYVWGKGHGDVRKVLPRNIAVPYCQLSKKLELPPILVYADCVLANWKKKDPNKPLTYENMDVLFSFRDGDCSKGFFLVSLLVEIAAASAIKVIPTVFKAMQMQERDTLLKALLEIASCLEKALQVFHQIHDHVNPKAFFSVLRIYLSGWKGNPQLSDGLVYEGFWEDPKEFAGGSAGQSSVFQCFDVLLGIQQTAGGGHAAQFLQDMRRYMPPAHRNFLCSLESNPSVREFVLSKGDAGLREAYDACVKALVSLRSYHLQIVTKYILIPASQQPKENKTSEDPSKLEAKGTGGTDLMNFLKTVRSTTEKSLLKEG

## Nc1oc2cccnc2c1Nc1ccc(F)c(Cl)c1 [Compound 1, N^3-(3-chloro-4-fluoro-phenyl)-furo[3,2-b]pyridine-2,3-diamine]
[1]
  IC50: < 200 nM

## Nc1oc2cnccc2c1Nc1ccc(C(F)(F)F)cc1 [Compound 6, N^3-(4-(Trifluoromethyl)phenyl)furo[2,3-c]pyridine-2,3-diamine]
[2]
  IC50: 500 to 2000 nM
[1]
  IC50: > 1000 nM

## Nc1oc2cnccc2c1Nc1ccc(Cl)cc1Cl [Compound 7, N^3-(2,4-Dichlorophenyl)furo[2,3-c]pyridine-2,3-diamine]
[2]
  IC50: > 2000 nM
[1]
  IC50: > 1000 nM

## Nc1oc2cnccc2c1Nc1ccc(N2CCOCC2)cc1 [Compound 11, N^3-(4-Morpholinophenyl)furo[2,3-c]pyridine-2,3-diamine]
[2]
  IC50: > 2000 nM
[1]
  IC50: > 1000 nM

## Nc1oc2cnccc2c1Nc1cc(F)c(F)cc1F [Compound 12, N^3-(2,4,5-Trifluorophenyl)furo[2,3-c]pyridine-2,3-diamine]
[2]
  IC50: > 2000 nM
[1]
  IC50: > 1000 nM

## Nc1oc2cnccc2c1Nc1ccc(Cl)cc1 [Compound 17, N^3-(4-Chlorophenyl)furo[2,3-c]pyridine-2,3-diamine]
[2]
  IC50: 500 to 2000 nM
[1]
  IC50: > 1000 nM

## Nc1oc2cnccc2c1Nc1ccc(I)c(Cl)c1 [Compound 18, N^3-(3-Chloro-4-iodophenyl)furo[2,3-c]pyridine-2,3-diamine]
[2]
  IC50: 500 to 2000 nM
[1]
  IC50: > 1000 nM

## Nc1oc2cnccc2c1Nc1ccc(Cc2ccccc2)cc1 [Compound 23, N^3-(4-Benzylphenyl)furo[2,3-c]pyridine-2,3-diamine]
[2]
  IC50: 500 to 2000 nM
[1]
  IC50: > 1000 nM

## Nc1oc2cnccc2c1Nc1ccccc1N1CCCCC1 [Compound 24, N^3-(2-(Piperidin-1-yl)phenyl)furo[2,3-c]pyridine-2,3-diamine]
[2]
  IC50: > 2000 nM
[1]
  IC50: > 1000 nM

## N#Cc1cccc(Nc2c(N)oc3cnccc23)c1F [Compound 28, 3-((2-Aminofuro[2,3-c]pyridin-3-yl)amino)-2-fluorobenzonitrile]
[2]
  IC50: > 2000 nM
[1]
  IC50: > 1000 nM

## Nc1oc2cnccc2c1Nc1ccc(Oc2ccccc2)cc1 [Compound 29, N^3-(4-Phenoxyphenyl)furo[2,3-c]pyridine-2,3-diamine]
[2]
  IC50: > 2000 nM
[1]
  IC50: > 1000 nM

## Nc1oc2cnccc2c1Nc1ccc(F)cc1Cl [Compound 30, N^3-(2-Chloro-4-fluorophenyl)furo[2,3-c]pyridine-2,3-diamine]
[2]
  IC50: 500 to 2000 nM
[1]
  IC50: > 1000 nM

## Nc1oc2cnccc2c1Nc1ccc(Cl)c(Cl)c1Cl [Compound 31, N^3-(2,3,4-Trichlorophenyl)furo[2,3-c]pyridine-2,3-diamine]
[2]
  IC50: > 2000 nM
[1]
  IC50: > 1000 nM

## CC(C)(C)c1cc(Nc2c(N)oc3cnccc23)cc(C(C)(C)C)c1 [Compound 32, N^3-(3,5-Di-tert-butylphenyl)furo[2,3-c]pyridine-2,3-diamine]
[2]
  IC50: 500 to 2000 nM
[1]
  IC50: > 1000 nM

## COc1ccc(Nc2c(N)oc3cnccc23)c(OC)c1 [Compound 34, N^3-(2,4-Dimethoxyphenyl)furo[2,3-c]pyridine-2,3-diamine]
[2]
  IC50: > 2000 nM
[1]
  IC50: > 1000 nM

## C#Cc1ccc(Nc2c(N)oc3cnccc23)cc1 [Compound 36, N^3-(4-Ethynylphenyl)furo[2,3-c]pyridine-2,3-diamine]
[2]
  IC50: 500 to 2000 nM
[1]
  IC50: > 1000 nM

## CC(C)Oc1cccc(Nc2c(N)oc3cnccc23)c1 [Compound 37, N^3-(3-Isopropoxyphenyl)furo[2,3-c]pyridine-2,3-diamine]
[2]
  IC50: > 2000 nM
[1]
  IC50: > 1000 nM

## COc1cc(Nc2c(N)oc3cnccc23)cc(OC)c1 [Compound 38, N^3-(3,5-Dimethoxyphenyl)furo[2,3-c]pyridine-2,3-diamine]
[1]
  IC50: > 1000 nM

## N#Cc1ccc(Nc2c(N)oc3cnccc23)cc1 [Compound 39, 4-((2-Aminofuro[2,3-c]pyridin-3-yl)amino)benzonitrile]
[2]
  IC50: 500 to 2000 nM
[1]
  IC50: > 1000 nM

## CC(=O)c1ccc(Nc2c(N)oc3cnccc23)cc1 [Compound 41, 1-(4-((2-Aminofuro[2,3-c]pyridin-3-yl)amino)phenyl)ethanone]
[2]
  IC50: 500 to 2000 nM
[1]
  IC50: > 1000 nM

## Nc1oc2cnccc2c1Nc1ccc(F)c(Cl)c1Cl [Compound 45, N^3-(2,3-Dichloro-4-fluorophenyl)furo[2,3-c]pyridine-2,3-diamine]
[2]
  IC50: > 2000 nM
[1]
  IC50: > 1000 nM

## Nc1oc2cnccc2c1Nc1cccnc1 [Compound 49, N^3-(Pyridin-3-yl)furo[2,3-c]pyridine-2,3-diamine]
[2]
  IC50: 500 to 2000 nM
[1]
  IC50: > 1000 nM

## Nc1oc2cnccc2c1Nc1ccc(OC(F)(F)F)cc1 [Compound 50, N^3-(4-(Trifluoromethoxy)phenyl)furo[2,3-c]pyridine-2,3-diamine]
[2]
  IC50: 500 to 2000 nM
[1]
  IC50: > 1000 nM

## Nc1oc2cnccc2c1Nc1cncc(Cl)c1 [Compound 52, N^3-(5-Chloropyridin-3-yl)furo[2,3-c]pyridine-2,3-diamine]
[2]
  IC50: 500 to 2000 nM
[1]
  IC50: > 1000 nM

## Nc1oc2cnccc2c1Nc1cccc(-c2ccccc2)c1 [Compound 53, N^3-([1,1′-Biphenyl]-3-yl)furo[2,3-c]pyridine-2,3-diamine]
[2]
  IC50: > 2000 nM
[1]
  IC50: > 1000 nM

## Cc1ccc(Nc2c(N)oc3cnccc23)c(C)c1 [Compound 54, N^3-(2,4-Dimethylphenyl)furo[2,3-c]pyridine-2,3-diamine]
[2]
  IC50: 500 to 2000 nM
[1]
  IC50: > 1000 nM

## Cc1ncc(CO)c2c(Nc3ccc(F)c(Cl)c3)c(N)oc12 [Compound 56, (2-amino-3-((3-chloro-4-fluorophenyl)amino)-7-methylfuro[2,3-c]pyridin-4-yl)methanol]
[2]
  IC50: > 2000 nM
[1]
  IC50: > 1000 nM

## Nc1oc2cncc(Cl)c2c1Nc1ccc(F)c(Cl)c1 [Compound 57, 4-Chloro-N^3-(3-chloro-4-fluoro-phenyl)-furo[2,3-c]pyridine-2,3-diamine]
[2]
  IC50: 500 to 2000 nM
[1]
  IC50: > 1000 nM

## CC(C)(C)c1cccc(Nc2c(N)oc3cnccc23)c1 [Compound 61, N^3-(3-(tert-Butyl)phenyl)furo[2,3-c]pyridine-2,3-diamine]
[2]
  IC50: > 2000 nM
[1]
  IC50: > 1000 nM

## Nc1oc2cnccc2c1Nc1cccc2c1CCCC2 [Compound 63, N^3-(5,6,7,8-Tetrahydronaphthalen-1-yl)furo[2,3-c]pyridine-2,3-diamine]
[2]
  IC50: > 2000 nM
[1]
  IC50: > 1000 nM

## Nc1oc2cnccc2c1Nc1cccc(Cc2ccccc2)c1 [Compound 75, N^3-(3-Benzylphenyl)furo[2,3-c]pyridine-2,3-diamine]
[2]
  IC50: > 2000 nM
[1]
  IC50: > 1000 nM

## Nc1oc2cnccc2c1Nc1cccc(C2CCCCC2)c1 [Compound 88, N^3-(3-Cyclohexylphenyl)furo[2,3-c]pyridine-2,3-diamine]
[2]
  IC50: 500 to 2000 nM
[1]
  IC50: > 1000 nM

## Nc1oc2cnccc2c1Nc1cccc(CC2CCC2)c1 [Compound 89, N^3-(3-(Cyclobutylmethyl)phenyl)furo[2,3-c]pyridine-2,3-diamine]
[2]
  IC50: > 2000 nM
[1]
  IC50: > 1000 nM

## Nc1sc2ccc(-c3ccccc3)cc2c1Nc1ccc(F)c(Cl)c1 [Compound 134, N^3-(3-chloro-4-fluorophenyl)-5-phenylbenzo[b]thiophene-2,3-diamine]
[1]
  IC50: > 1000 nM

## O=C(Nc1oc2cnccc2c1N(C(=O)OCc1ccccc1)c1ccc(F)c(Cl)c1)OCc1ccccc1 [Compound 140, Benzyl (2-(((benzyloxy)carbonyl)amino)furo[2,3-c]pyridin-3-yl)(3-chloro-4-fluorophenyl)carbamate]
[1]
  IC50: > 1000 nM

## Nc1oc2c(-c3ccc(F)c(F)c3F)nccc2c1Nc1ccc(F)c(Cl)c1 [Compound 171, N^3-(3-Chloro-4-fluorophenyl)-7-(2,3,4-trifluorophenyl)furo[2,3-c]pyridine-2,3-diamine]
[1]
  IC50: < 200 nM

## Nc1sc2c(-c3cncc4ccccc34)cccc2c1Nc1ccc(F)c(Cl)c1 [Compound 281, N^3-(3-Chloro-4-fluorophenyl)-7-(isoquinolin-4-yl)benzo[b]thiophene-2,3-diamine]
[2]
  IC50: > 2000 nM
